Measured values: US9174991B2, “Crystalline form of pemetrexed disodium” (Azad Pharmaceutical Ingredients AG, priority 2009, dated 2015)
Counter-ions that a name gives are not always drawn. Like-named read-outs stand apart in the source and are kept apart here.

Columns and labels:
[1] = starting material, before storage
Experimental: HPLC analysis was done on an Agilent 1100 system equipped with DAD detector using a Zorbax SB-Phenyl column (150×4.6 mm, 3 μm). Measurements were done at 230 nm wavelengths at 25° C. using a flow of 1.0 mL/min and 8 min post-run time. As mobile phase water containing 0.03% TFA and acetonitrile containing 0.025% TFA were used, solvents were HPLC grade. Sample preparation: 10 mg sample in 25 mL water:ACN=1:1, 5 uL injection. Retention time Pemetrexed Disodium: 10.3 min.
PXRD: Routine PXRD measurements were carried out on a Bruker AXS D8Advance diffractometer equipped with CuKα source with CuKβ filter and a VANTEC detector (Ser. No.: 202964). Measurement parameters: 3° 2theta to 39.9° 2theta, step time: 2s, step size: 0.022°, T=25° C., X-ray generator: 35 kV/40 mA.

[2] = 70° C., 5 mbar; for change in HPLC-purity upon vacuum drying (in words): up to 9 d
Experimental: (§1) To investigate the stability of the different forms of Pemetrexed Disodium a stability test concerning storage at different relative humidity, storage in the presence of light and stability under drying conditions was carried out.
Four samples were stored at 70° 5 mbar in laboratory vacuum oven. IPC were taken after 2 d, 9 d
(§2) HPLC analysis was done on an Agilent 1100 system equipped with DAD detector using a Zorbax SB-Phenyl column (150×4.6 mm, 3 μm). Measurements were done at 230 nm wavelengths at 25° C. using a flow of 1.0 mL/min and 8 min post-run time. […] Sample preparation: 10 mg sample in 25 mL water:ACN=1:1, 5 uL injection.

[3] = for H2O (KFT) / HPLC-purity (10.5 min) / PXRD / HPLC-purity: dark, air; for change in HPLC purity in any of the samples (in words): all relative humidities tested (5% to 70%)
[4] = for change in HPLC purity in the presence of light (in words) / change in color in the presence of light (in words): text says after 16 d
Experimental: as §1
The samples were stored in double PE plastic bags and exposed to daylight IT=20° C. to 25° C. IPCs were taken after 15 d.
as §2

[5] = 5% to 12% relative humidity, 2 d, measured 11.7% (Form A 5.8%), 23° C.
[6] = 5% to 12% relative humidity, 5 d, measured 9.5% (Form A 5.3%), 24° C.
[7] = 5% to 12% relative humidity, 9 d, measured 9% (Form A 6%), 24° C.
[8] = 5% to 12% relative humidity, 16 d, measured 8.5% (Form A 5.8%), 24° C.
[9] = 27% to 33% relative humidity, 2 d, measured 29.8% (Form A 28%), 23° C.
[10] = 27% to 33% relative humidity, 5 d, measured 29% (Form A 27%), 24° C.
[11] = 27% to 33% relative humidity, 9 d, measured 31% (Form A 30%), 24° C.
[12] = 27% to 33% relative humidity, 16 d, measured 30.4% (Form A 28.7%), 24° C.
[13] = 39% to 50% relative humidity, 2 d, measured 41.1% (Form A 39%), 23° C.
[14] = 39% to 50% relative humidity, 5 d, measured 42.8% (Form A 38.6%), 24° C.
[15] = 39% to 50% relative humidity, 9 d, measured 48% (Form A 47%), 24° C.
[16] = 39% to 50% relative humidity, 16 d, measured 47.3% (Form A 46.4%), 24° C.
[17] = 60% to 70% relative humidity, 2 d, measured 61%, 22° C. (Form A 54%, 23° C)
[18] = 60% to 70% relative humidity, 5 d, measured 63% (Form A 57%), 24° C.
[19] = 60% to 70% relative humidity, 9 d, measured 69% (Form A 68%), 24° C.
[20] = 60% to 70% relative humidity, 16 d, measured 66.9% (Form A 67.2%), 24° C.
[21] = daylight, listed as Pemetrexed Disodium Form IV
[22] = double PE plastic bags, daylight, 20° C. to 25° C., 15 d

Structure (SMILES): Nc1nc(O)c2c(CCc3ccc(C(=O)N[C@@H](CCC(=O)O)C(=O)O)cc3)c[nH]c2n1 [Form IV, disodium N-[4-[2-(2-amino-4,7-dihydro-4-oxo-3H-pyrrolo[2,3-d]-pyrimidin-5-yl)ethyl]benzoyl]-L-glutamic acid salt]
- HPLC-purity (10.5 min) [1]: 99.85%
- PXRD [1]: Form IV
- HPLC-purity (10.5 min) ([2]; 2 d): 99.70%
- PXRD ([2]; 2 d): Form IV
- HPLC-purity (10.5 min) ([2]; 9 d): 99.80%
- change in water content upon vacuum drying (in words) ([2]; after 9 d): no significant change
- change in HPLC-purity upon vacuum drying (in words) ([2]; listed as Pemetrexed Disodium Form IV): no significant change
- change in water content (in words) ([3]; 5% to 12% rel. humidity (for Form A and Form IV: 7% to 12%), up to 16 d, listed as Pemetrexed Disodium Form IV): does not show significant change
- H2O (KFT) [3, 5]: 1.0%
- HPLC-purity (10.5 min) [3, 5]: 99.66%
- PXRD [3, 5]: Form IV
- HPLC-purity (10.5 min) [3, 6]: 99.60%
- PXRD [3, 6]: Form IV
- HPLC-purity (10.5 min) [3, 7]: 99.83%
- PXRD [3, 7]: Form IV
- HPLC-purity [3, 8]: 99.88%
- PXRD [3, 8]: Form IV
- change in water content (in words) ([3]; 27% to 33% rel. humidity, up to 16 d, listed as Pemetrexed Disodium Form IV): does not show significant change
- HPLC-purity [3, 9]: 99.81%
- PXRD [3, 9]: Form IV
- HPLC-purity [3, 10]: 99.73%
- PXRD [3, 10]: Form IV
- HPLC-purity [3, 11]: 99.82%
- PXRD [3, 11]: Form IV
- HPLC-purity [3, 12]: 99.86%
- PXRD [3, 12]: Form D
- HPLC-purity [3, 13]: 99.84%
- PXRD [3, 13]: Form IV
- HPLC-purity [3, 14]: 99.78%
- PXRD [3, 14]: Form IV
- HPLC-purity [3, 15]: 99.76%
- PXRD [3, 15]: Form IV
- PXRD ([3]; 39% to 50% relative humidity, 9 d, measured 48% (Form A 47%), 24° C., listed as Pemetrexed Disodium Form IV): without significant change
- HPLC-purity [3, 16]: 99.81%
- PXRD ([3]; 39% to 50% relative humidity, 16 d, measured 47.3% (Form A 46.4%), 24° C., listed as Pemetrexed Disodium Form IV): traces of Pemetrexed Disodium Heptahydrate
- change in water content (in words) ([3]; 40% to 50% rel. humidity, up to 16 d, listed as Pemetrexed Disodium Form IV): slight increase
- change in water content (in words) ([3]; 60% to 70% rel. humidity, after 2 d): significant increase
- HPLC-purity [3, 17]: 99.83%
- PXRD ([3]; 60% to 70% relative humidity, 2 d, measured 61%, 22° C. (Form A 54%, 23° C), listed as Pemetrexed Disodium Form IV): partial transformation to Pemetrexed Disodium Heptahydrate
- HPLC-purity [3, 18]: 99.75%
- PXRD [3, 18]: Heptahydrate
- PXRD ([3]; 60% to 70% relative humidity, 5 d, measured 63% (Form A 57%), 24° C., listed as Pemetrexed Disodium Form IV): Transformation to Pemetrexed Disodium Heptahydrate is complete
- HPLC-purity [3, 19]: 99.85%
- PXRD [3, 19]: Heptahydrate
- HPLC-purity [3, 20]: 99.81%
- PXRD [3, 20]: Heptahydrate
- change in HPLC purity in any of the samples (in words) ([3]; up to 16 d): No significant change
- HPLC-purity ([4]; daylight study, Start): 99.83%
- change in HPLC purity in the presence of light (in words) [4, 21]: slight decrease
- change in color in the presence of light (in words) [4, 21]: without significant change
- HPLC-purity [4, 22]: 99.44%

Structure (SMILES): Nc1nc(O)c2c(CCc3ccc(C(=O)N[C@@H](CCC(=O)O)C(=O)O)cc3)c[nH]c2n1 [2.5 hydrate, disodium N-[4-[2-(2-amino-4,7-dihydro-4-oxo-3H-pyrrolo[2,3-d]-pyrimidin-5-yl)ethyl]benzoyl]-L-glutamic acid salt]
- HPLC-purity (10.5 min) [1]: 99.86%
- PXRD [1]: 2.5 hydrate
- HPLC-purity (10.5 min) ([2]; 2 d): 99.88%
- PXRD ([2]; 2 d): 2.5 hydrate
- HPLC-purity (10.5 min) ([2]; 9 d): 99.80%
- H2O (KFT) ([2]; 9 d, listed as Pemetrexed Disodium 2.5 hydrate): 7.9%
- change in HPLC-purity upon vacuum drying (in words) [2]: no significant change
- change in water content (in words) ([3]; 5% to 12% rel. humidity (for Form A and Form IV: 7% to 12%), up to 16 d, listed as Pemetrexed Disodium 2.5 hydrate): no significant change
- change in HPLC-purity (in words) ([3]; 5% to 12% rel. humidity (text for Form A: 7% to 12%), up to 16 d, listed as Pemetrexed Disodium 2.5 hydrate): no significant change
- H2O (KFT) [3, 5]: 8.9%
- HPLC-purity (10.5 min) [3, 5]: 99.74%
- PXRD [3, 5]: 2.5 hydrate
- HPLC-purity (10.5 min) [3, 6]: 99.82%
- PXRD [3, 6]: 2.5 hydrate
- HPLC-purity (10.5 min) [3, 7]: 99.90%
- PXRD [3, 7]: 2.5 hydrate
- HPLC-purity [3, 8]: 99.80%
- PXRD [3, 8]: 2.5 hydrate
- change in water content (in words) ([3]; 27% to 33% rel. humidity, up to 16 d, listed as Pemetrexed Disodium 2.5 hydrate): slight increase
- HPLC-purity [3, 9]: 99.82%
- PXRD [3, 9]: 2.5 hydrate
- HPLC-purity [3, 10]: 99.91%
- PXRD [3, 10]: 2.5 hydrate
- HPLC-purity [3, 11]: 99.84%
- PXRD ([3]; 27% to 33% relative humidity, 9 d, measured 31% (Form A 30%), 24° C., listed as Pemetrexed Disodium 2.5 hydrate): traces of Pemetrexed Disodium Heptahydrate
- HPLC-purity [3, 12]: 99.64%
- HPLC-purity [3, 13]: 99.83%
- PXRD ([3]; 39% to 50% relative humidity, 2 d, measured 41.1% (Form A 39%), 23° C., listed as Pemetrexed Disodium 2.5 hydrate): formation of Pemetrexed Disodium Heptahydrate
- HPLC-purity [3, 14]: 99.62%
- PXRD [3, 14]: Heptahydrate
- PXRD ([3]; 39% to 50% relative humidity, 5 d, measured 42.8% (Form A 38.6%), 24° C., listed as Pemetrexed Disodium 2.5 hydrate): transformation seems to be complete
- HPLC-purity [3, 15]: 99.74%
- PXRD [3, 15]: Heptahydrate
- HPLC-purity [3, 16]: 99.86%
- PXRD [3, 16]: Heptahydrate
- change in water content (in words) ([3]; 40% to 50% rel. humidity, up to 16 d, listed as Pemetrexed Disodium 2.5 hydrate): increase
- HPLC-purity [3, 17]: 99.73%
- PXRD [3, 17]: Heptahydrate
- PXRD ([3]; 60% to 70% relative humidity, 2 d, measured 61%, 22° C. (Form A 54%, 23° C), listed as Pemetrexed Disodium 2.5 hydrate): transformation to Pemetrexed Disodium Heptahydrate is complete
- HPLC-purity [3, 18]: 99.86%
- PXRD [3, 18]: Heptahydrate
- HPLC-purity [3, 19]: 99.84%
- PXRD [3, 19]: Heptahydrate
- HPLC-purity [3, 20]: 99.83%
- PXRD [3, 20]: Heptahydrate
- change in HPLC purity in any of the samples (in words) ([3]; up to 16 d): No significant change
- HPLC-purity ([4]; daylight study, Start): 99.73%
- change in HPLC purity in the presence of light (in words) ([4]; daylight): do not show significant changes
- change in color in the presence of light (in words) ([4]; daylight): do not show significant changes
- HPLC-purity [4, 22]: 99.74%
